{"source": "patent US11220524B2", "about": "“Selective inhibitors of protein arginine methyltransferase 5 (PRMT5)” (PRELUDE THERAPEUTICS, INCORPORATED, priority 2017, dated 2022)", "key": {"PRMT5/MEP50 complex": {"target": "PRMT5/MEP50 complex (Homo sapiens (Human), UniProt O14744)", "sequence (O14744 whole entry)": "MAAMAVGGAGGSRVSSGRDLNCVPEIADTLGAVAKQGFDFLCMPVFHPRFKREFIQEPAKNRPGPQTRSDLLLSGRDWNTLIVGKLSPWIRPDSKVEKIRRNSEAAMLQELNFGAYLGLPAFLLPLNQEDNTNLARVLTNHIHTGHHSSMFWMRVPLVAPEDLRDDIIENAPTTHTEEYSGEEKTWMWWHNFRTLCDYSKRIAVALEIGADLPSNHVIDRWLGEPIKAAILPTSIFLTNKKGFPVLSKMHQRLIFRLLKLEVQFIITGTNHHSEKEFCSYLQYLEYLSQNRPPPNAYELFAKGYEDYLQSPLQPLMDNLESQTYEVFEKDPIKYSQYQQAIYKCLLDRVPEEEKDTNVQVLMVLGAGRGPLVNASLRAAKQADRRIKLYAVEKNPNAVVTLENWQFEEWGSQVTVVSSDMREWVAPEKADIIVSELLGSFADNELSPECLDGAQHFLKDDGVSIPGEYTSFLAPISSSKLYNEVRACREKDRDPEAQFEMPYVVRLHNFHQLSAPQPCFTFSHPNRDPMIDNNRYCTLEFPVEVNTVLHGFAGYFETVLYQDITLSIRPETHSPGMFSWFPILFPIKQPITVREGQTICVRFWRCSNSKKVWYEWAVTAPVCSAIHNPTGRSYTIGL", "sequence (Q9BQA1 whole entry partner)": "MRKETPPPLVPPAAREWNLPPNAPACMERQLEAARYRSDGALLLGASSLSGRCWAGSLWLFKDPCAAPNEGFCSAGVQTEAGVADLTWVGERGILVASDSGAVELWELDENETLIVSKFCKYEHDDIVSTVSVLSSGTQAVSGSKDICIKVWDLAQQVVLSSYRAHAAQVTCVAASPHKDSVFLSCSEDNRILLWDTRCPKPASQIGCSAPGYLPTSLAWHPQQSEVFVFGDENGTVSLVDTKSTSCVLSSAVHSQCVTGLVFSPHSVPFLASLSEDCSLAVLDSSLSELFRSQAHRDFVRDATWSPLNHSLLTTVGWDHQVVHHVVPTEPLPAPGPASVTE", "experiment": "Biochemical assay: PRMT5/MEP50 methylation of histone H2A with 3H-SAM, filter plate scintillation", "how_it_was_run": "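5 nM PRMT5/MEP50 preincubated with compound 15–20 min at room temperature, with 5 μM histone H2A as substrate; reaction started with 1 μM 3H-SAM and run 60 min at 30 °C. TCA-stopped, filter-captured methylation counted by scintillation; IC50 from 4-parameter Hill fit.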"}, "[1]": {"test_system": "Symmetric Di-Methyl Arginine (sDMA) in Granta-519 cells", "experiment": "Western blot for symmetric di-methyl arginine (sDMA) marks in Granta cells, 3 days treatment", "type": "cell-based", "conditions": "Homo sapiens, 3 days"}, "Granta-519 cells": {"test_system": "Granta-519 cells", "experiment": "Cell proliferation assay on Granta-519 cells (CCK-8, day 10)", "type": "cell-based", "conditions": "Homo sapiens", "description": "Cell Proliferation Assay to Determine IC50 on Granta-519 Cells\nGranta-519 cells were maintained in PRMI 1640 (Corning Cellgro, Catalog #: 10-040-CV) medium supplemented with 10% v/v FBS (GE Healthcare, Catalog #: SH30910.03). Compounds were dissolved in DMSO to make 10 mM stocks and stored at −20° C. Nine-point, 3-fold serial dilutions were made with DMSO with top concentration at 1 mM (working stocks).\nOn day of experiment, compound working stocks were further diluted at 1:50 with fresh medium in 96 well plate, and 10 μL of diluted drugs were added to a new 96 well plate for proliferation assay. Cells growing at exponential phase were spun down at 1500 rpm for 4 min and resuspend in fresh medium to reach a density of 0.5×10^6 cells/ml. 200 ul of cells were added to 96 well plate containing diluted drugs and incubated for 3 days. DMSO was used a vehicle control.\nOne day 3, 10 μL of Cell Counting Kit-8 (CCK-8, Jojindo, CK04-13) solution was added to a new 96 well plate. Cells incubated with drugs for 3 days were resuspended by pipetting up and down, and 100 μL of cells were transferred to 96 well plate containing CCK-8 reagent to measure viable cells. Plates were incubated in C02 incubator for 2 hours and OD450 values were measured with a microplate reader (iMark microplate reader, Bio-Rad).\nFor re-plating, compound working stocks were diluted at 1:50 with fresh medium and 10 μL of diluted drugs were added to anew 96 well plate. Cells from Day 3plate (50 ul) were added to 96 well plate containing fresh drug and additional 150 of fresh medium was added to reach 200 ul volume. Plate was returned to CO2incubator and incubated for 3more days. Viable cells measurement and re-plating were repeated on day 6, and the final viable cells measurement was taken on day 10.\nPercentage of viable cells, relative to DMSO vehicle control, were calculated and plotted in Graphpad Prism ([Inhibitor] vs. normalized response-Variable slope) to determine proliferation IC50 values on day 10."}, "[2]": {"experiment": "In vivo pharmacokinetic study in rat (i.v. and p.o.)", "conditions": "for clearance / half-life / Vd / bioavailability: blood; for clearance / half-life / Vd: iv; for half-life: read-out: T1/2 (printed T2) (converted); for Vd: read-out: Vss; for bioavailability: po", "description": "In Vivo Pharmacokinetic Properties of Example 36.\nIn a rat (SD, male, non-fasted) non-crossover cassette PK study, Example 36 was dosed at 0.25 mg/kg via i.v. administration (N=3) and 2 mg/kg via oral gauge (p.o.) (N=3) with other 3 compounds.\nIn Vivo Pharmacokinetic Properties of Example 92.\nIn a rat (SD, male, non-fasted) non-crossover PK study, Example 92 was dosed at 1 mg/kg (DMA: 20% HPBCD=5:95, solution) via i.v. administration (N=2) and 1 mg/kg (0.5% Na CMC+0.5% Tween80, solution) via oral gauge (p.o.) (N=2)."}, "[3]": {"test_system": "sDMA in Granta-519 tumors", "experiment": "In vivo pharmacodynamic effect: sDMA levels in tumor samples of Granta-519 mouse xenograft model", "description": "(§1) In Vivo Pharmacodynamic Effect of Example 36 in Granta-519 Mouse Xenograft Model.\n(§2) Granta-519 cells was maintained in DMEM medium supplemented with 10% fetal bovine serum and 2 mM L-Glutamine at 37° C. in an atmosphere of 5% C02 in air. Cells in exponential growth phase were harvested and 1×10^7 cells in 0.1 mL of PBS with Matrigel (1:1) were injected subcutaneously at the right lower flank region of each mouse for tumor development. The treatments were started when the mean tumor size reaches approximately 300-400 mm^3. […] Example 36 or vehicle (0.5% methylcellulose+0.1% Tween 80) were administered orally (BID for Example 36, QD for vehicle) at a dose of 25 mg/kg for 6 days. Body weights and tumor size were measured thrice weekly after randomization. Animals were euthanized 4 hours after last dosing on day 6, and blood and tumor samples were collected for analysis.\nTo measure sDMA levels in tumor samples, tumors from each mouse were weighted and homogenized in RIPA buffer supplemented with protease inhibitor (cOmplete™, EDTA-free Protease Inhibitor Cocktail, Roche). […] Total protein concentrations of lysate were determined by BCA assay (ThermoFisher Scientific, Catalog #: 23225). Equal amount of total proteins from each tumor were separated on SDS-PAGE gel, and sDMA levels were determined by WB as described previously. […]"}, "[4]": {"test_system": "Granta-519 mouse xenograft", "experiment": "Tumor growth inhibition and body weight in Granta-519 mouse xenograft model", "type": "in vivo", "conditions": "for tumor growth inhibition: N=5", "description": "as §1, §2\nExample 92 or vehicle (0.5% Na CMC+0.5% Tween80, suspension) were administered orally (QD for Example 92, QD for vehicle) at a dose of 50 mg/kg for 14 days. Body weights and tumor size were measured every 3 to 4 days after randomization. Animals were euthanized 4 hours after last dosing, and blood and tumor samples were collected for analysis."}, "physchem": {"experiment": "physchem", "conditions": "25 °C, fassif, thermodynamic from solid", "description": "Compounds were first dispersed in freshly prepared FaSSIF (http://biorelevant.com/site_media/upload/documents/How_to_make_FaSSIF_FeSSIF_and_FaSSGF.pdf) buffer in 1 mg/mL respectively, and the standard samples were prepared by preparing 1 mg/mL of test compounds in DMSO. The compounds were then sufficient mixed by vortex mixer for 30 sec, and agitated at 25° C. using 300 rpm form 4 hour in thermo mixer. After incubation, the prepared samples were centrifuged at 10000 rpm for 10 min to remove the undissolved solid, the resulting supernatants were applied to HPLC. The actual concentrations of the compounds were evaluated by measuring the peak area, and the solubility (S) of compounds was calculated according to following equation: S=Csmp=Cstd*(Asmp/Astd)*(Vstd/Vsmp) Where C is the sample concentration in μg/mL, A is the peak area, and V is the injection volume."}, "[5]": {"conditions": "histone H2A 5 μM, SAM 1 μM, enzyme 5 nM, read-out: PRMT5/MEP50 IC50"}, "[6]": {"conditions": "rat SD male non-fasted, i.v. 1 mg/kg, N=2"}, "[7]": {"conditions": "rat SD male non-fasted, p.o. 1 mg/kg, N=2"}, "[8]": {"conditions": "rat SD male non-fasted, cassette, i.v. 0.25 mg/kg, N=3"}}, "note": "Read-outs that look alike come from different tables or passages of the source.", "data": [{"smiles": "C[C@@](O)(c1ccc(Cl)c(Cl)c1)[C@H]1O[C@@H](n2cnc3c(N)ncnc32)[C@H](O)[C@@H]1O", "note": "[Example 1-C, (2R,3R,4S,5S)-2-(6-amino-9H-purin-9-yl)-5-((R)-1-(3,4-dichlorophenyl)-1-hydroxyethyl)tetrahydrofuran-3,4-diol]", "values": [{"measurement": "IC50", "setting": "PRMT5/MEP50 complex; biochemical potency, read-out: PRTMT5/MEP50 IC50", "result": 3.6, "unit": "nM"}, {"measurement": "IC50", "setting": "[1]; Granta-519, 72 h, Granta cell line", "result": 8.2, "unit": "nM"}, {"measurement": "IC50", "setting": "Granta-519 cells; Granta-519, 240 h, Granta cell line, read-out: Prolif. IC50", "result": 44, "unit": "nM"}, {"measurement": "metabolite detection in blood samples", "setting": "[2]; rat, after dosing of Example 92 at 1 mg/kg", "result": "detected in blood samples"}, {"measurement": "AUC0-inf of metabolite", "setting": "[2]; rat, metabolite after dosing of Example 92 at 1 mg/kg", "result": 284, "unit": "ng·kg·h/mL/mg"}, {"measurement": "sDMA in tumor samples", "setting": "[3]; 30 mg/kg, separate experiment", "result": "no detectable amount of sDMA"}, {"measurement": "body weight gain", "setting": "[4]; 30 mg/kg, separate experiment", "result": 6, "unit": "%"}, {"measurement": "tumor growth inhibition", "setting": "[4]; 30 mg/kg, separate experiment", "result": 61, "unit": "%"}, {"measurement": "metabolite detection in blood and tumor samples", "setting": "[4]; mouse xenograft, after Example 92 at 50 mg/kg QD for 14 days", "result": "detected in all blood and tumor samples"}]}, {"smiles": "CO/N=c1\\[nH]cnc2c1ncn2[C@@H]1O[C@H]([C@](C)(O)c2ccc(Cl)c(Cl)c2)[C@@H](O)[C@H]1O", "note": "[Example 92, (2S,3S,4R,5R)-2-[(1R)-1-(3,4-dichlorophenyl)-1-hydroxy-ethyl]-5-[(6Z)-6-methoxyimino-1H-purin-9-yl]tetrahydrofuran-3,4-diol]", "values": [{"measurement": "IC50", "setting": "PRMT5/MEP50 complex; [5]", "result": 1970, "unit": "nM"}, {"measurement": "clearance", "setting": "[2]; [6]", "result": 11.3, "unit": "mL/min/kg"}, {"measurement": "half-life", "setting": "[2]; [6]", "result": 1.84, "unit": "h"}, {"measurement": "Vd", "setting": "[2]; [6]", "result": 1.13, "unit": "L/kg"}, {"measurement": "bioavailability", "setting": "[2]; [7]", "result": "> 100", "unit": "%"}, {"measurement": "dose normalized AUC0-inf", "setting": "[2]; [7]", "result": 2184, "unit": "ng·kg·h/mL/mg"}, {"measurement": "inhibition of sDMA in tumor samples", "setting": "[3]; 50 mg/kg orally QD for 14 days", "result": "> 90", "unit": "%"}, {"measurement": "body weight loss", "setting": "[4]; 50 mg/kg orally QD for 14 days", "result": 1, "unit": "%"}, {"measurement": "tumor growth inhibition", "setting": "[4]; 50 mg/kg orally QD for 14 days", "result": 74, "unit": "%"}]}, {"smiles": "CO/N=c1/nc[nH]c2c1ccn2[C@@H]1O[C@H]([C@H](O)c2ccc(Cl)cc2)[C@@H](O)[C@H]1O", "note": "[compound 36, (2R,3S,4R,5R)-2-[(R)-(4-chlorophenyl)-hydroxy-methyl]-5-(-4-methoxyimino-1H-pyrrolo[2,3-d]pyrimidin-7-yl]tetrahydrofuran-3,4-diol]", "values": [{"measurement": "IC50", "setting": "PRMT5/MEP50 complex; [5]", "result": 17300, "unit": "nM"}, {"measurement": "IC50", "setting": "[1]; 72 h, Granta-519 cell line", "result": 102000, "unit": "nM"}, {"measurement": "IC50", "setting": "Granta-519 cells; 240 h, Granta-519 cell line, read-out: Proliferation IC50", "result": 144, "unit": "nM"}, {"measurement": "solubility at 4 h", "setting": "physchem", "result": 912, "unit": "µg/mL"}, {"measurement": "clearance", "setting": "[2]; [8]", "result": 12.3, "unit": "mL/min/kg"}, {"measurement": "half-life", "setting": "[2]; [8]", "result": 1.2, "unit": "h"}, {"measurement": "Vd", "setting": "[2]; [8]", "result": 1.1, "unit": "L/kg"}, {"measurement": "bioavailability", "setting": "[2]; rat SD male non-fasted, cassette, p.o. 2 mg/kg, N=3", "result": "> 120", "unit": "%"}]}]}
